Earlier results, collected in patent US8455508B2, “Sustained release parenteral formulations of buprenorphine” (priority 2007, dated 2013).

Details: in oil

Which “duration of action relative to buprenorphine HCl in saline” value does the source give for `CCCCCCCCCC(=O)Oc1ccc2c3c1OC1C4(OC)CCC5(CC4C(C)(O)C(C)(C)C)C(C2)N(CC2CC2)CCC315` (stereo not shown) [buprenorphine decanoate] here?
Its value is 14 fold.
